This is an account of results in patent US20220175777A1, “Inhibitors of Multidrug Resistance Transporter P-Glycoprotein” (Southern Methodist University, priority 2014, published 2022).

One may read the IC50 as the concentration that inhibits the measured activity by half. Low values mean inhibition by little substance, high ones a need for much substance.

The test system of assay [1] is DU145TXR. Description: Intrinsic toxicity, MTT survival. Particulars: Homo sapiens; intrinsic toxicity, 48 hours, MTT; ± standard error. Type of assay: cell-based, human. The protocol: (§1) Percent survival determined by MTT assay calculated relative to cells treated with equal volume DMSO vehicle and represent the mean±SEM from 2-4 separate studies, each study performed in triplicate wells.
(§2) The intrinsic in vitro toxicities of identified compounds were evaluated to determine their potential therapeutic window. This was assessed in a noncancerous cell line (HFL1) and the human prostate cancer cell lines DU145 and the MDR sub-line DU145TxR.

Assay [2] relates to DU145. Nature of the assay: Intrinsic toxicity, MTT survival. Type of assay: cell-based. Particulars: Homo sapiens, DU-145, 48 hours, ± standard error. The protocol:
as §1, §2

Assay [3] concerns the target T1, Cysteineless Mouse MDR3 P-glycoprotein (Mus musculus, UniProt P21447, C1070A/C1121A/C1223A/C133A/C427A/C638A/C669A/C713A/C952A).
T1 construct: made in house; host or cells: Pichia pastoris
Particulars: ESR data of Brewer et al. (2014); cited from earlier work.

Assay [4] has as its system A2780. Description: Hyper-sensitization of ovarian cancer cells to doxorubicin. In kind it is cell-based. Particulars: not chemotherapy resistant A2780. From the text: Hyper-sensitization of cancers to chemotherapeutics. […] The sensitivity of normal, not chemotherapy resistant A2780 ovarian cancer cell lines to doxorubicin was increased by several orders of magnitude in these assays.

Assay [5] concerns DU145TXR. Description: Dose dependent sensitization of MDR cell line to paclitaxel (MTT). In kind it is cell-based, human. Particulars: 25 μM compound. As to the method: FIGS. 6A to 6C show the dose dependent sensitization of MDR prostate cancer cell line DU145TxR. […] For reference, the DU145TxR (closed circle) and DU145 (open circle) incubated with paclitaxel only are also included. Values are mean±SEM from at least 2 separate experiments performed in triplicate wells. The data were normalized to the intrinsic toxicities as determined in studies from FIGS. 5A to 5C of each of the compounds for each of the corresponding concentrations.
Dose Dependent Sensitization of MDR Prostate Cancer Cell Line: To determine the degree to which the MDR prostate cancer cell line DU145TxR could be sensitized to paclitaxel the inventors determined cell survival at increasing concentrations of paclitaxel in the presence of three concentrations of P-gp inhibitors. FIGS. 6A, 6B and 6C show the survival of DU145TxR at increasing concentration of paclitaxel in the presence of 5 μM, 10 μM and 25 μM of the experimental compounds, respectively. The open circles represent the parental DU145 cell line in the presence of paclitaxel without addition of any inhibitor compound. The closed circles represent the survival of the multidrug resistant DU145TxR in the presence of paclitaxel alone. […] At that concentration over 10-fold increase in paclitaxel sensitivity in DU145TxR is observed compared to DU145TxR without P-gp inhibitors. Doubling the concentration of the compounds to 10 μM approximately doubled the DU145TxR sensitivity to paclitaxel.

Assay [6] concerns HFL1. Nature of the assay: Intrinsic toxicity, MTT survival. In kind it is cell-based. Particulars: Homo sapiens, 48 hours, ± standard error. As to the method: as §1
The intrinsic in vitro toxicities of identified compounds were evaluated to determine their potential therapeutic window. This was assessed in a noncancerous cell line (HFL1) and the human prostate cancer cell lines DU145 and the MDR sub-line DU145TxR. The potential toxicity of the compounds were assessed at concentrations that centered around 25 μM.

For assay [7], the target named is T1, Cysteineless Mouse MDR3 P-glycoprotein. Description: ATP hydrolysis by purified P-glycoprotein, basal and verapamil-stimulated. In kind it is biochemical. Particulars: in the presence of verapamil. Summed up:
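Cysteine-less mouse MDR3 P-gp (all Cys→Ala), expressed in Pichia pastoris and stabilised with phosphatidyl choline, was pre-incubated with compounds at 37 °C. ATP hydrolysis (2 mM ATP final, 20 min) measured via pyruvate kinase/lactate dehydrogenase-coupled NADH oxidation, with and without verapamil stimulation.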

The test system of assay [8] is DU145TXR. Description: Potentiation of 500 nM paclitaxel cytotoxicity (MTT). In kind it is cell-based, human. The protocol:
FIGS. 4A and 4B show the in silico identified P-gp inhibitors potentiate the cytotoxic effects of paclitaxel in the MDR human prostate cancer cell line DU145TxR. […] Values represent the mean±SEM of at least two separate experiments performed in triplicate.
A range of experimental inhibitor concentrations was added in the presence of 500 nM paclitaxel and the cell viability was assessed using the MTT assay.
In order to compare the efficacy of inhibitors, the potentiation concentration of inhibitor resulting in 50% reduction in cell viability, PC50, in the presence of 500 nM paclitaxel was calculated from the data in FIG. 4A.

For assay [9], the system named is DU145-TxR. Nature of the assay: Re-sensitization to Paclitaxel or Doxorubicin at 25 μM compound (MTT). Type of assay: cell-based, human. Particulars: 48 hours. As to the method:
FIGS. 3A-3B are plots that show an example of the re-sensitization of a multidrug resistant prostate cancer cell line to two different chemotherapeutics using the prostate cancer derived cell line, DU145 and the multidrug-resistant variant, DU145-TxR. […] Cell viability was measured by the MTT (3-(4,5-dimethylthiazol-2-yl)-2,5-diphenyl tetrazolium bromide assay conducted as described previously. After 48 hours of treatment with Paclitaxel or Doxorubicin alone or in the presence of 25 μM compound 29, 34, or 45 media was removed and cells were washed twice with phosphate buffered saline (PBS) and MTT assay was conducted 24 hours later. Data expressed as mean±SEM.

In assay [10] the target is T1, Cysteineless Mouse MDR3 P-glycoprotein. Nature of the assay: SL-ATP binding to P-gp by ESR spectroscopy. Particulars: 50 microM inhibitor compound. The essentials:
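Cysteine-free mouse P-gp (30–50 microM) incubated with 50 microM inhibitor, then titrated with spin-labelled ATP analogue SL-ATP. Bound SL-ATP calculated from high-field ESR signal of free SL-ATP versus no-protein control, giving binding stoichiometry and affinity; at least 3 studies on 3–5 P-gp preparations.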

T1 sequence (P21447 whole entry C133A/C427A/C638A/C669A/C713A/C952A/C1070A/C1121A/C1223A): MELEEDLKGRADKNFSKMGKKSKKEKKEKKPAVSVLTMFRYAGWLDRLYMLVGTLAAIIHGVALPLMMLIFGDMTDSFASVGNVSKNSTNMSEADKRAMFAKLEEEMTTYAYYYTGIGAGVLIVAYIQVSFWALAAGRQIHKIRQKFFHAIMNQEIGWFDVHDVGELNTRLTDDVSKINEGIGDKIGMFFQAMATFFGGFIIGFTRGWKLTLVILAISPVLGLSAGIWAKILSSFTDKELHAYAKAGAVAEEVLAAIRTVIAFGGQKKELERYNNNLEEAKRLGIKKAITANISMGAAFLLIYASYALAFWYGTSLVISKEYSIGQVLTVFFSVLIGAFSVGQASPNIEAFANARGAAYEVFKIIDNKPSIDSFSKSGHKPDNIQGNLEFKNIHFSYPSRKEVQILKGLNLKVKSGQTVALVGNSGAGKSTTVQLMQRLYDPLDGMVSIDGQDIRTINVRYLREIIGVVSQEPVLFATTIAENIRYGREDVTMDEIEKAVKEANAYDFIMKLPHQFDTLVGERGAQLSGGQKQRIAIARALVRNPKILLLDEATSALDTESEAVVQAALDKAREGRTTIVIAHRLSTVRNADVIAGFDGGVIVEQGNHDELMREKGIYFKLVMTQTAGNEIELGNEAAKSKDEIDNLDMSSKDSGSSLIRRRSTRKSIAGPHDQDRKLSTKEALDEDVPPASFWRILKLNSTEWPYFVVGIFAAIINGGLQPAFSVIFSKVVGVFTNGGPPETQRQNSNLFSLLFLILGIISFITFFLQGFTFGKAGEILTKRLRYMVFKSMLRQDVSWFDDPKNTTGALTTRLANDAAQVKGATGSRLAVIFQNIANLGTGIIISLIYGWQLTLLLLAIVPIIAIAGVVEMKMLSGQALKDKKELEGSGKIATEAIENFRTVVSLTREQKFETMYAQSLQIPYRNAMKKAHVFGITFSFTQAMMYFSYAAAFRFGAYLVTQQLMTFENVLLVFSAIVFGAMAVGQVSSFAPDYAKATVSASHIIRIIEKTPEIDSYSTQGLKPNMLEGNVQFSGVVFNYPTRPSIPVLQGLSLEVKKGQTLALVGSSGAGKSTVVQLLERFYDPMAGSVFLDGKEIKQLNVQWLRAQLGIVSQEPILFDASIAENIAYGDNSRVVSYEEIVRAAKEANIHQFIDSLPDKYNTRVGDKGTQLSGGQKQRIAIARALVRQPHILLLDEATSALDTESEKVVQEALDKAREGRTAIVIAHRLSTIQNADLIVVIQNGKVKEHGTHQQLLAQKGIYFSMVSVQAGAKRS

For the compound `CCC(C(=O)N1CCN(c2ccc(OC)cc2)CC1)n1nc(C)c2sc3ccccc3c2c1=O` (centres unmarked) [SMU-34, 2-[1-[4-(4-methoxyphenyl)piperazin-1-yl]-1-oxobutan-2-yl]-4-methyl-[1]benzothiolo[2,3-d]pyridazin-1-one], the results for the IC50 in assay [1], in assay [2] and in assay [6] were 200.3 ± 0.17 µM, 47.2 ± 0.02 µM and 85.2 ± 0.04 µM, respectively. For the same compound, the “Effect on SL-ANP binding” value in assay [3] is given as “reduce the number of binding sites”. For the same compound, in [4], the Sensitivity to doxorubicin result is “hyper-sensitized”. The Sensitization to paclitaxel in assay [5] is on record as 1200 fold. In assay [7], the “Effect on stimulated ATPase” value is “significantly inhibit”. Besides, the “Effect on paclitaxel sensitivity” value in [8] (50 nM-25 μM inhibitor with 500 nM paclitaxel) was “strongly affected the sensitivity”. For the same compound, the EC50 in assay [8] (in the presence of 500 nM paclitaxel, 48 hours, read-out: PC50, potentiation concentration of inhibitor resulting in 50% reduction in cell viability) worked out at 0.57 ± 0.003 µM. Also, the “Chemotherapeutic sensitivity of MDR cell line (Paclitaxel or Doxorubicin)” value in [9] is given as “restores chemotherapeutic sensitivity”. The “Effect on SL-ATP binding” value in assay [10] was “decreased the SL-ATP binding affinities”.
